Data published in PMC6984391, “Anion carriers as potential treatments for cystic fibrosis: transport in cystic fibrosis cells, and additivity to channel-targeting drugs” (Chemical Science, 2019).

What was measured:
[1] = design: method as in ref [16 and 25], [20], [21], [22], [23], [24], [29] (Reference column); conditions: 1H NMR titrations with Bu4N^+Cl^– in DMSO-d6/H2O (200 : 1) at 298 K; ref [16 and 25], [20], [21], [22], [23], [24], [29]; cited from earlier work
YFP-CFBE cells = assay: YFP fluorescence plate reader assay of anion transport in YFP-CFBE cells; type: cell-based; conditions: for anion transport in YFP-CFBE cells (in words) / concentration–response relationship in YFP-CFBE compared with YFP-FRT cells: 1–50 μM; for anionophore concentration matching the effect of UTP (1 mM): anion transport equivalent to CaCC activation, YFP-CFBE cells; for effect of CaCC activation on anionophore-mediated anion transport: anionophore 50 μM with UTP 1 mM; for effect of CaCCinh-A01 on transport by anionophore: anionophore 50 μM, CaCCinh-A01 10 μM
Description: To begin to test anionophores in CF airway epithelial cells, we utilised the CF bronchial epithelial cell line CFBE41o^– engineered to express YFP-H148Q/I152L (YFP-CFBE cells).[34],[35] One advantage of using YFP-CFBE cells is that they endogenously express the Ca^2+-activated Cl^– channel (CaCC), unlike YFP-FRT cells.[33] Thus, using YFP-CFBE cells, we directly compared anion transport by anionophores with that of the CaCC, an alternative pathway to restore anion transport in CF.[13]
FRT cells stably expressing the halide sensor YFP-H148Q/I152L6 were generous gifts of AS Verkman (University of California, San Francisco), while CFBE41o- cells7 stably expressing YFP (YFP-CFBE cells) were a generous gift of LJV Galietta (Telethon Institute for Genetics and Medicine). YFP-FRT cells were cultured as described previously for FRT cells8 except that media contained 10% fetal bovine serum, 2 mM L-glutamine and the selection agent G418 (YFP-FRT cells, 0.5 mg ml-1; WT-CFTR-YFP-FRT cells, 0.75 mg ml-1) or zeocin (F508del-CFTR-YFP-FRT cells, 0.5 mg ml-1). YFP-CFBE cells were cultured in minimal essential medium (MEM) supplemented with 10% fetal bovine serum, 2 mM L-glutamine, 100 U ml-1 penicillin and […] streptomycin. All cells were incubated at 37 °C in a humidified atmosphere with 5% CO2.
For fluorescence microplate reader studies, cells were seeded in 96-well plates and grown in culture media at 37 °C in a humidified atmosphere with 5% CO2 for 3 – 4 days until […]
90% confluent. […]
(§1) Fluorescence plate reader assay […]
(§2) quenching of YFP fluorescence at 37 °C using a microplate reader following the method of Galietta et al..9 The microplate reader (model: FLUORstar Omega; BMG LABTECH Ltd., Aylesbury, UK) was equipped with a syringe pump and excitation (500 ± 10 nm) and emission (535 ± 15 nm) filters (Chroma Technology GmbH, Olching, Germany). After washing cells twice with PBS (composition (mM): 137 NaCl, 2.7 KCl, 8.1 Na2HPO4, 1.5 KH2PO4, 1 CaCl2 and 0.5 MgCl2, pH 7.40), cells were incubated with test anionophores (1 – 50 µM) or the vehicle (DMSO [0.1 – 0.5% v v-1]) in 40 µl of PBS for 10 – 120 minutes according to the experimental design. Other compounds, including forskolin, ivacaftor and channel inhibitors were added to […]
(§3) the PBS bathing cells 10 minutes prior to PBS iodide addition, whereas UTP was added to cells with the PBS iodide solution. Fluorescence was measured for 14 seconds; 2 seconds before and 12 seconds after injection of 110 µl PBS iodide solution (137 mM Cl- replaced by I-) into each well (to obtain a final concentration of I- of 100 mM).
(§4) We expressed cell fluorescence values (F) relative to the fluorescence value immediately before I- injection (F0), excluding the initial decrease, which likely represents the quenching of extracellular YFP released from cells and signal reduction accompanying the increase in solution volume bathing cells. To quantify anion transport by test anionophores, we determined the initial slope of the fluorescence decay following I - addition by fitting first order exponential functions to the last 12 seconds of each fluorescence recording. In each experim ent, n values represent the mean of two replicates and all treatments were tested at least three times using different microplates. […]
(§5) FRT cells was selected and the cells were perfused with (i) PBS for 5 minutes then (ii) PBS containing I- (10 mM) (made by preparing PBS with 127 mM NaCl to maintain osmolarity) for 5 minutes and finally (iii) PBS for 30 minutes to remove thoroughly I- from the perfusion chamber. YFP-FRT cells were repeatedly treated with I- (10 mM) and then washed with PBS […]
(§6) During all interventions, the rate of solution perfusion was 8 – 10 ml min-1; temperature was 37 °C and except for the first 15 minutes of PBS washing, no data were collected between cycles of I- perfusion and PBS […]
For cell fluorescence measurements, we used the Volocity (Improvision) data acquisition and analysis system and a cooled CCD camera (Hamamatsu ORCA ER firewall) […]

[2] = system: F508del-CFTR-YFP-FRT cells; assay: Anionophore anion transport in F508del-CFTR-YFP-FRT cells; type: cell-based, Fischer rat; conditions: for anion transport in control F508del-CFTR-YFP-FRT cells / additivity of anion transport to rescue of F508del-CFTR: 50 μM; for anion transport in control F508del-CFTR-YFP-FRT cells: cells grown at 37 °C; for additivity of anion transport to rescue of F508del-CFTR: 27 °C or lumacaftor rescue; for anion transport when added together with forskolin and ivacaftor: anionophore 50 μM, forskolin 10 μM, ivacaftor 1 μM
Description: To learn whether anionophores are additive to small molecules that rescue disease-causing CFTR variants, we used FRT cells co-expressing F508del-CFTR, the predominant CF mutation and YFP-H148Q/I152L (F508del-CFTR-YFP-FRT cells).[28] To rescue the plasma membrane expression of F508del-CFTR, we used low temperature or the clinically-licensed CFTR corrector lumacaftor,[38],[39] while to increase its activity, we used the clinically-licensed CFTR potentiator ivacaftor.[40]
FRT cells stably expressing the halide sensor YFP-H148Q/I152L6 were generous gifts of AS Verkman (University of California, San Francisco), while CFBE41o- cells7 stably expressing YFP (YFP-CFBE cells) were a generous gift of LJV Galietta (Telethon Institute for Genetics and Medicine). YFP-FRT cells were cultured as described previously for FRT cells8 except that media contained 10% fetal bovine serum, 2 mM L-glutamine and the selection agent G418 (YFP-FRT cells, 0.5 mg ml-1; WT-CFTR-YFP-FRT cells, 0.75 mg ml-1) or zeocin […]
(F508del-CFTR-YFP-FRT cells, 0.5 mg ml-1). […]
U ml-1 penicillin and 100 mg ml-1 streptomycin. All cells were incubated at 37 °C in a humidified atmosphere with 5% CO2.
For fluorescence microplate reader studies, cells were seeded in 96-well plates and grown in culture media at 37 °C in a humidified atmosphere with 5% CO2 for 3 – 4 days until 90% confluent. To promote the plasma membrane expression of F508del-CFTR, prior to study F508del-YFP-FRT cells were either cultured at 27 °C for 24 h or treated with lumacaftor (3 µM) in YFP-FRT media containing 1% fetal bovine serum at 37 °C for 24 h. […]
as §1, §2, §3, §4, §5, §6
For cell fluorescence measurements, we used the Volocity (Improvision) data […]

SMILES | K a to Cl^– in DMSO [1] | effect of increasing incubation period from 10 to 120 minutes on anion transport (YFP-CFBE cells; 10 μM) | effect of increasing incubation period from 10 to 120 minutes on anion transport (YFP-CFBE cells; 50 μM) | anion transport in YFP-CFBE cells (in words) (YFP-CFBE cells) | concentration–response relationship in YFP-CFBE compared with YFP-FRT cells (YFP-CFBE cells) | anionophore concentration matching the effect of UTP (1 mM) (YFP-CFBE cells) | effect of CaCC activation on anionophore-mediated anion transport (YFP-CFBE cells) | effect of CaCCinh-A01 on transport by anionophore (YFP-CFBE cells) | anion transport in control F508del-CFTR-YFP-FRT cells [2] | additivity of anion transport to rescue of F508del-CFTR [2] | anion transport when added together with forskolin and ivacaftor [2]
FC(F)(F)c1ccc(NC(=S)NCCN(CCNC(=S)Nc2ccc(C(F)(F)F)cc2)CCNC(=S)Nc2ccc(C(F)(F)F)cc2)cc1 [Compound 18] | 9.6 × 10^2 M^–1 |  |  |  |  |  |  |  |  |  | 
FC(F)(F)c1cc(NC(=S)NCCN(CCNC(=S)Nc2cc(C(F)(F)F)cc(C(F)(F)F)c2)CCNC(=S)Nc2cc(C(F)(F)F)cc(C(F)(F)F)c2)cc(C(F)(F)F)c1 [Compound 19] | 4.4 × 10^3 M^–1 | increased noticeably | increased noticeably | mediated anion transport | similar | 1 µM | strongly additive | direct inhibitory effect | mediated anion transport | additive | increased further the amount of anion transport
CCOC(=O)[C@]12CC[C@@H](NC(=S)Nc3cc(C(F)(F)F)cc(C(F)(F)F)c3)C[C@@H]1C[C@@H](NC(=S)Nc1cc(C(F)(F)F)cc(C(F)(F)F)c1)CC2 [Compound 15] | 2.4 × 10^3 M^–1 |  |  | mediated anion transport | less efficacious | 1 µM | either without effect or weakly additive | not observed | mediated anion transport | additive | increased further the amount of anion transport
CCOC(=O)[C@]12CC[C@@H](NC(=S)Nc3ccc([N+](=O)[O-])cc3)C[C@@H]1C[C@@H](NC(=S)Nc1ccc([N+](=O)[O-])cc1)CC2 [Compound 12] |  | increased noticeably | dramatic acceleration | mediated anion transport | identical | 1 µM | either without effect or weakly additive | not observed | mediated anion transport | additive | increased further the amount of anion transport
